The numbers were not newly measured in US20050249799A1, “Polymeric drug delivery system for hydrophobic drugs” (Spherics, Inc., priority 2004, published 2005), which cites them from elsewhere.

Like-named read-outs stand apart in the source and are kept apart here.

Test in data set [1]: not given
This is another data set of the same source.

On to `CCC(C)n1ncn(-c2ccc(N3CCN(c4ccc(OCC5COC(Cn6cncn6)(c6ccc(Cl)cc6Cl)O5)cc4)CC3)cc2)c1=O` (centres unmarked) [itraconazole, Itraconazole], for which the bioavailability (usually dose-corrected exposure relative to a reference, in per cent) (oral capsule) is on record as 55%.
Consider `NC(=O)N1c2ccccc2C=Cc2ccccc21` [Carbamazepine, 5H-dibenz[b,f]azepine-5-carboxamide], for which the “time to peak plasma concentrations” value (oral) was 4 to 24 h. For the same molecule, the bioavailability (tablet form) is 89%. The solubility in water entry in data set [1] is “practically insoluble”.
As to `Nc1nc2c(ncn2COCCO)c(=O)[nH]1` [Acyclovir, 2-amino-1,9-dihydro-9-[(2-hydroxyethoxy)methyl]-6H-purin-6-one], the absolute bioavailability (200 mg dose given every 4 hours) was 20%.
With `C#C[C@]1(O)CC[C@H]2[C@@H]3CCC4=Cc5oncc5C[C@]4(C)[C@H]3CC[C@@]21C` [Danazol, 17a-Pregna-2,4-dien-20-yno[2,3-d]-isoxazol-17-ol], where the note is “in vivo”, the half-life (in general, the time in which the quantity being followed falls by half) is 4 to 5 h. For the same molecule, where the note is “oral”, the “increase in plasma concentration on doubling the dose” value is 30-40% and the “time to peak plasma concentrations” value was at most 2 h.
